{"source": "BindingDB's records for doi:10.1016/j.bmcl.2011.11.008", "about": "(Korea Research Institute of Bioscience and Biotechnology, 2011)", "key": {"[1]": {"assay": "Inhibition of PRL-3-mediated cell migration in human DLD1 cells after 15 hrs by crystal violet staining based microscopic assay"}, "[2]": {"assay": "Inhibition of PRL-3-mediated cell invasion in human DLD1 cells after 20 hrs using crystal violet staining by Matrigel invasion assay"}}}
{"smiles": "Cc1cc(O)c2c(c1)C(=O)c1cc(O)cc(O)c1C2=O", "note": "[1,3,8-trihydroxy-6-methylanthra-9,10-quinone]", "values": [{"measurement": "IC50", "setting": "[1]", "result": 28, "unit": "µM"}, {"measurement": "IC50", "setting": "[2]", "result": 35, "unit": "µM"}]}
